Molecular target: T1, recombinant human secreted phospholipase A2 (Homo sapiens, UniProt P14555)
T1 sequence (P14555 21-144): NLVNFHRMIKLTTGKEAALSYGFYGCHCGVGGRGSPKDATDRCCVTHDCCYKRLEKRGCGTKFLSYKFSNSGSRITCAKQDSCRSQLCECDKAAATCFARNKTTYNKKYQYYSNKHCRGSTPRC
Assay: chromogenic assay of recombinant human secreted phospholipase A2
Type: biochemical
Details: diheptanoyl thio-PC substrate, pH 7.5, 40° C. for 30 minutes, absorbance at 405 nanometers, triplicate
From the text: The following chromogenic assay procedure was used to identify and evaluate inhibitors of recombinant human secreted phospholipase A2. The assay described herein has been adapted for high volume screening using 96 well microtiter plates. A general description of this assay method is found in the article, “Analysis of Human Synovial Fluid Phospholipase A2 on Short Chain Phosphatidylcholine-Mixed Micelles: Development of a Spectrophotometric Assay Suitable for a Microtiterplate Reader”, by Laure J. Reynolds, Lori L. Hughes, and Edward A Dennis, Analytical Biochemistry, 204, pp. 190–197, 1992 (the disclosure of which is incorporated herein by reference): […]
A measured volume of racemic dipheptanoyl thio PC supplied in chloroform at a concentration of 100 mg/ml is taken to dryness and redissolved in 10 millimolar TRITON X-100™ nonionic detergent aqueous solution. […]
• 1. […] Read absorbance of wells at 405 nanometers with an automatic plate reader.
Tests were done in triplicate. […] Compounds initially found to be active were re-assayed to confirm their activity and, if sufficiently active, IC50 values were determined. […] In all cases, % inhibition measured at 405 nanometers generated by enzyme reactions containing inhibitors relative to the uninhibited control reactions was determined. […]

How did the IC50 turn out when `NC(=O)C1CCc2c1c1c(OCC(=O)O)cccc1n2Cc1ccccc1` (stereo not shown) [Example 1, (4-Benzyl-1-carbamoyl-1,2,3,4-tetrahydro-cyclopenta[b]indol-8-yloxy)-acetic acid] was run?
The IC50 was 0.046 µM.

Reference: patent US7160909B2, “Cyclopenta[b]indole derivatives as sPLA2 inhibitors” (Eli Lilly and Company, priority 2001, dated 2007)
